Read-outs that look alike come from different tables or passages of the source.

Series [1] deals with T1, IRAK4 (Homo sapiens, UniProt Q9NWZ3).
T1 sequence (Q9NWZ3 1-460): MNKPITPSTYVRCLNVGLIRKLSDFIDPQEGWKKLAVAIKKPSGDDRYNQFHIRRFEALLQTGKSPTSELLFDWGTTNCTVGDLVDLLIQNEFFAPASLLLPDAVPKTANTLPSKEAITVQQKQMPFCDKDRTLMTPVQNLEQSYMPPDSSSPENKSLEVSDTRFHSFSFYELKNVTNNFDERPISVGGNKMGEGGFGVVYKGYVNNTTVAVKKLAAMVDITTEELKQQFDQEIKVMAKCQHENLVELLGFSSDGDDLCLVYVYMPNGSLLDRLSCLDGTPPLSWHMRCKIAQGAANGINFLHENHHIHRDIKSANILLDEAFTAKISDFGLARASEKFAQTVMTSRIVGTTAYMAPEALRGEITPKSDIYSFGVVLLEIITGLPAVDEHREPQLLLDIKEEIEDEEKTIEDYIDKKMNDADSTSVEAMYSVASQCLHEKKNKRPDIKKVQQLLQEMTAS
As to the kind of experiment: Degradation of IRAK4 in SU-DHL-2 cells (flow cytometry). The series is classed as cell-based. Further details: The degradation level of IRAK4 protein in SU-DHL-2 cell line by the compounds was detected by flow cytometry; endogenous in cells; host or cells: SU-DHL-2; OCI-LY3. The note with it: SU-DHL-2 cells, 24 hours incubation; read-out: SU-DHL-2 DC50.

The subject of a further series is inflammatory factors. Nature of the series: Inflammatory factors in plasma and peritoneal lavage fluid, IL-33-induced acute inflammation in mice (ELISA). The series is classed as in vivo, C57BL/6J mice. The settings on record: FIG. 1. How it is done: IL-33, a member of the IL-1 cytokine family, is the ligand for IL-1 receptor-like 1 or ST2. […] The effect of the compounds on inflammation in the IL-1R signaling pathway was investigated using an acute inflammatory model in mice induced by intraperitoneal injection of IL-33.
Preparation of IL-33 inducer: The mouse recombinant IL-33 powder was prepared as a 1 µg/µL stock solution. When using, 40 µL of the 1 µg/µL IL-33 solution was added to 3960 µL of PBS, mixed well by inversion, to obtain 4 mL of IL-33 solution with a concentration of 1 µg/100 µL, which was prepared freshly before use.

Series [2] has as its target T1, IRAK4. The series is classed as cell-based. The settings on record: read-out: OCI-LY3 DC50; OCI-LY3 cells. Further details: endogenous in cells; host or cells: OCI-LY3.
Series [3] addresses T2, IRAK4 (Mus musculus, UniProt Q8R4K2).
T2 sequence (Q8R4K2 1-459): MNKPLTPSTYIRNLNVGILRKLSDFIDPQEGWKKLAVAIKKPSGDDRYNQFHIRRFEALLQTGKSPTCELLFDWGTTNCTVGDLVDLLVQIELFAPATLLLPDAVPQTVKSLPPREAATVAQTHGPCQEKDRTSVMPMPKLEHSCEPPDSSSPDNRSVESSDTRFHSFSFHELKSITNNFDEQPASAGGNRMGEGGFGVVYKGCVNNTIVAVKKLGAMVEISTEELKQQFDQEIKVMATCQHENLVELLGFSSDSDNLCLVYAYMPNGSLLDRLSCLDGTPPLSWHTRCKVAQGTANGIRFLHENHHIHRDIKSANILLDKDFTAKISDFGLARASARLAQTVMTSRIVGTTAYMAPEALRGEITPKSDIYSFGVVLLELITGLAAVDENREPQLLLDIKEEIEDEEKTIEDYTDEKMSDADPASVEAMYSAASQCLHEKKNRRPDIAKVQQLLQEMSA
As to the kind of experiment: In vivo degradation of IRAK4 in mouse spleen, IL-33 model (LC-MS). The settings on record: Example 22 at 50 mpk, comparable drug concentrations in the spleen, FIG. 2. Further details: species or system C57BL/6J mice.

For series [4] the following is noted: mice, 8 hours after last administration.
Procedure: Experimental animals: SPF-grade male C57BL/6J mice aged 6-8 weeks.
Preparation of compound: 10% DMSO + 50% PEG400 + 40% sterile water for injection. The compound was dissolved in DMSO, followed by the addition of PEG400 and sterile water for injection, and the solution was adjusted to clarity with 6N hydrochloric acid.
Compound administration and IL-33 inflammatory induction: The mice were randomly grouped according to body weight and orally administered with the compound at final doses of 15 mg/kg, 50 mg/kg, and 150 mg/kg, twice daily. At 4 hours after the last administration of the compound, the mice were intraperitoneally injected with 1 µg/100 µL PBS of IL-33 for inflammatory induction.
Termination, sample collection, and data: Plasma, peritoneal lavage fluid, and spleen were collected for subsequent sample index detection.
The experiment was terminated 8 hours after the last administration. The mice were anesthetized, and cardiac blood was collected. The blood samples were anticoagulated with EDTA-K2, centrifuged at 3500 rpm for 15 minutes, and the upper plasma was collected.

As for `Cn1c(=O)n(C2CCC(=O)NC2=O)c2cccc(C#CCOC34CCC(CN5CCC6(CC5)CC(n5cc(NC(=O)c7cnn8ccc(N9C[C@H]%10C[C@@H]9CO%10)nc78)c(C(F)F)n5)C6)(CC3)CC4)c21` (stereo partly drawn) [Example 52], the DC50 on IRAK4 [1] is 3 nM.

Take `Cn1c(=O)n(C2CCC(=O)NC2=O)c2cccc(C#CCCN3CCC4(CC3)CC(n3cc(NC(=O)c5cnn6ccc(N7C[C@H]8C[C@@H]7CO8)nc56)c(C(F)F)n3)C4)c21` (stereo partly drawn) [Example 22]: the “anti-inflammatory effect compared with KT474” value in the series on inflammatory factors (at comparable drug concentrations in plasma) is “superior”. The “inflammatory factors in mouse plasma and peritoneal lavage fluid” value in the series with inflammatory factors (mice, PO 15, 50 and 150 mg/kg, IL-33 induction) is reported as “concentration-dependent reduction”. Besides, the DC50 on IRAK4 [2] was 1.3 nM; on IRAK4 [1] it was 1.4 nM. The “degradation effect of IRAK4 in mouse spleen compared with KT-474 at 150 mpk” value on IRAK4 [3] is on record as 2-3 times. Besides, the “C8hr Plasma” value was 54 ng/mL in series [4] (PO 15 mpk twice daily), 517 ng/mL in series [4] (PO 50 mpk twice daily) and 1392 ng/mL in series [4] (PO 150 mpk twice daily). The “C8hr Spleen” value in series [4] (PO 15 mpk twice daily) is 369 ng/mL; in series [4] (PO 50 mpk twice daily), 6135 ng/mL; in series [4] (PO 150 mpk twice daily), 16257 ng/mL.

The record behind these values is patent EP4656640A1, “IRAK4 DEGRADER AND USE THEREOF” (Shanghai Qilu Pharmaceutical Research and Development …, priority 2023, dated 2024).
